Test results as given in PubChem BioAssay AID1963980 (Molecular Pharmacology Branch, DTP, NCI, 2024).

Test system: 475296-252-R-J1-PDC spheroid viability
Test: Anticancer human tumor 475296-252-R-J1-PDC patient-derived rectal carcinoma cell line growth inhibition [PI3K]
Conditions: spheroids with HUVEC and MSC; for IC50: curve of first compound; for viability, T/C: stronger effect = lower value
Procedure, shortened: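 Combination activity was assessed by viability in multicellular tumor spheroids carrying HUVEC and MSC components. Agents were tested with PI3K inhibitors from a Cmax-based top dose (or 10 microM) downward in half-log increments.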

[1] = second compound 0.0316 µM, first compound 0.0316 µM
[2] = second compound 0.0316 µM, first compound 0.1 µM
[3] = second compound 0.1 µM, first compound 0.0316 µM
[4] = second compound 0.1 µM, first compound 0.1 µM
[5] = second compound 0.316 µM, first compound 0.0316 µM
[6] = second compound 0.316 µM, first compound 0.1 µM
[7] = second compound 1 µM, first compound 0.0316 µM
[8] = second compound 1 µM, first compound 0.1 µM
[9] = second compound 3.16 µM, first compound 0.0316 µM
[10] = second compound 3.16 µM, first compound 0.1 µM
[11] = second compound 10 µM, first compound 0.0316 µM
[12] = second compound 10 µM, first compound 0.1 µM
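Also: spheroids exposed to agents for seven days before readout.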

CC(C)n1nc(-c2ccc3oc(N)nc3c2)c2c(N)ncnc21 + CC(Nc1ncnc2nc[nH]c12)c1cc2cccc(Cl)c2c(=O)n1-c1ccccc1
IC50 (second compound 0.0316 µM): > 0.1 µM
IC50 (second compound 0.1 µM): > 0.1 µM
IC50 (second compound 0.316 µM): > 0.1 µM
IC50 (second compound 1 µM): > 0.1 µM
IC50 (second compound 3.16 µM): > 0.1 µM
IC50 (second compound 10 µM): > 0.1 µM
viability, T/C (second compound 0.0316 µM, first compound 0.000316 µM): 87.4%
viability, T/C (second compound 0.0316 µM, first compound 0.001 µM): 101%
viability, T/C (second compound 0.0316 µM, first compound 0.00316 µM): 96%
viability, T/C (second compound 0.0316 µM, first compound 0.01 µM): 76.7%
viability, T/C [1]: 66.4%
viability, T/C [2]: 59.6%
viability, T/C (second compound 0.1 µM, first compound 0.000316 µM): 97.8%
viability, T/C (second compound 0.1 µM, first compound 0.001 µM): 88.2%
viability, T/C (second compound 0.1 µM, first compound 0.00316 µM): 78%
viability, T/C (second compound 0.1 µM, first compound 0.01 µM): 72.9%
viability, T/C [3]: 77.4%
viability, T/C [4]: 62.3%
viability, T/C (second compound 0.316 µM, first compound 0.000316 µM): 101%
viability, T/C (second compound 0.316 µM, first compound 0.001 µM): 110%
viability, T/C (second compound 0.316 µM, first compound 0.00316 µM): 105%
viability, T/C (second compound 0.316 µM, first compound 0.01 µM): 92.7%
viability, T/C [5]: 65.9%
viability, T/C [6]: 56.4%
viability, T/C (second compound 1 µM, first compound 0.000316 µM): 111%
viability, T/C (second compound 1 µM, first compound 0.001 µM): 97.8%
viability, T/C (second compound 1 µM, first compound 0.00316 µM): 84.9%
viability, T/C (second compound 1 µM, first compound 0.01 µM): 88.5%
viability, T/C [7]: 63%
viability, T/C [8]: 59.2%
viability, T/C (second compound 3.16 µM, first compound 0.000316 µM): 87.8%
viability, T/C (second compound 3.16 µM, first compound 0.001 µM): 101%
viability, T/C (second compound 3.16 µM, first compound 0.00316 µM): 94.6%
viability, T/C (second compound 3.16 µM, first compound 0.01 µM): 75.2%
viability, T/C [9]: 66.8%
viability, T/C [10]: 61.2%
viability, T/C (second compound 10 µM, first compound 0.000316 µM): 91.3%
viability, T/C (second compound 10 µM, first compound 0.001 µM): 92%
viability, T/C (second compound 10 µM, first compound 0.00316 µM): 88.9%
viability, T/C (second compound 10 µM, first compound 0.01 µM): 80.3%
viability, T/C [11]: 68.9%
viability, T/C [12]: 63.6%

Cn1nccc1Nc1nccc(-c2ccn(C(CO)c3ccc(Cl)c(F)c3)c(=O)c2)n1 (centres undefined) + Cc1nc(NC(=O)N2CCCC2C(N)=O)sc1-c1ccnc(C(C)(C)C(F)(F)F)c1
IC50 (second compound 0.0316 µM): > 10 µM
IC50 (second compound 0.1 µM): > 10 µM
IC50 (second compound 0.316 µM): > 10 µM
IC50 (second compound 1 µM): > 10 µM
IC50 (second compound 3.16 µM): > 10 µM
IC50 (second compound 10 µM): 1.44 µM
viability, T/C [1]: 108%
viability, T/C [2]: 94.2%
viability, T/C (second compound 0.0316 µM, first compound 0.316 µM): 106%
viability, T/C (second compound 0.0316 µM, first compound 1 µM): 88.9%
viability, T/C (second compound 0.0316 µM, first compound 3.16 µM): 99.6%
viability, T/C (second compound 0.0316 µM, first compound 10 µM): 79.2%
viability, T/C [3]: 95.8%
viability, T/C [4]: 87.3%
viability, T/C (second compound 0.1 µM, first compound 0.316 µM): 94.6%
viability, T/C (second compound 0.1 µM, first compound 1 µM): 91.4%
viability, T/C (second compound 0.1 µM, first compound 3.16 µM): 99.6%
viability, T/C (second compound 0.1 µM, first compound 10 µM): 75.9%
viability, T/C [5]: 105%
viability, T/C [6]: 108%
viability, T/C (second compound 0.316 µM, first compound 0.316 µM): 87.2%
viability, T/C (second compound 0.316 µM, first compound 1 µM): 85%
viability, T/C (second compound 0.316 µM, first compound 3.16 µM): 81.1%
viability, T/C (second compound 0.316 µM, first compound 10 µM): 68.5%
viability, T/C [7]: 92.1%
viability, T/C [8]: 91.5%
viability, T/C (second compound 1 µM, first compound 0.316 µM): 91%
viability, T/C (second compound 1 µM, first compound 1 µM): 84.5%
viability, T/C (second compound 1 µM, first compound 3.16 µM): 88%
viability, T/C (second compound 1 µM, first compound 10 µM): 59.9%
viability, T/C [9]: 85.9%
viability, T/C [10]: 89.3%
viability, T/C (second compound 3.16 µM, first compound 0.316 µM): 79.8%
viability, T/C (second compound 3.16 µM, first compound 1 µM): 79.1%
viability, T/C (second compound 3.16 µM, first compound 3.16 µM): 58.8%
viability, T/C (second compound 3.16 µM, first compound 10 µM): 50.7%
viability, T/C [11]: 87.7%
viability, T/C [12]: 86%
viability, T/C (second compound 10 µM, first compound 0.316 µM): 83.7%
viability, T/C (second compound 10 µM, first compound 1 µM): 63.1%
viability, T/C (second compound 10 µM, first compound 3.16 µM): 21.8%
viability, T/C (second compound 10 µM, first compound 10 µM): 8.46%
